Results on 11 molecules are retold here after US10689354B2, “Aminoazole derivative” (Teijin Pharma Limited, priority 2015, dated 2020).

The target in one assay is T1, human androgen receptor (Homo sapiens, UniProt P10275).
T1 construct: expressed in transfected cells; host or cells: HEK293
T1 sequence (P10275 1-920): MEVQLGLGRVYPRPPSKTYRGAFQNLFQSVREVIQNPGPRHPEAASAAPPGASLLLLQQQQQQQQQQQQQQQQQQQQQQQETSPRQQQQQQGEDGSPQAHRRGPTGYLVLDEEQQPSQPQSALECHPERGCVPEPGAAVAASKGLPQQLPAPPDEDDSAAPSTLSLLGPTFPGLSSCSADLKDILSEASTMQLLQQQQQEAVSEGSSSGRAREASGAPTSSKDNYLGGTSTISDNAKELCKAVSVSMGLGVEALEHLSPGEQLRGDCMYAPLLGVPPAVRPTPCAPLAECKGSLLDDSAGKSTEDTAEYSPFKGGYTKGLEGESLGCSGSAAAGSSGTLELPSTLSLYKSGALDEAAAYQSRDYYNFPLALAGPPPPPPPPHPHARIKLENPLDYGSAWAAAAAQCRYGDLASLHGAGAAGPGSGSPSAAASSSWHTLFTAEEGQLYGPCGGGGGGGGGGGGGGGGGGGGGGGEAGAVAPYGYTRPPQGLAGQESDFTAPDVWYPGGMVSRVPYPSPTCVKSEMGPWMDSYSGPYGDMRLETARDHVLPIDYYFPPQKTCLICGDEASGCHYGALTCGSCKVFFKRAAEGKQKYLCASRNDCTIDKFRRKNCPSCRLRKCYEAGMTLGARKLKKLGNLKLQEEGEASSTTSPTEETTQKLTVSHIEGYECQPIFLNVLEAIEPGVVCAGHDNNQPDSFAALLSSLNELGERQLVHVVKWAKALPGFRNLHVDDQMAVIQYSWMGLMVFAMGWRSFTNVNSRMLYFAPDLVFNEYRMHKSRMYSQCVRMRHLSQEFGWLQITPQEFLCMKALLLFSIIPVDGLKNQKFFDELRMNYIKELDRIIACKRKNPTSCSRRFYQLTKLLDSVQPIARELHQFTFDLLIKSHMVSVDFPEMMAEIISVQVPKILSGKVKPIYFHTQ
As to the kind of experiment: Reporter assay of an androgen receptor responsive sequence (luciferase, transiently transfected HEK293 cells). It is filed as cell-based. The conditions noted are these: 24 hours incubation, relative to activity of 100 nM DHT, read-out: AR transcriptive activity (pEC50) (converted). The method, boiled down: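 Agonism scored as pEC50, fitted by 4-parameter curve against the response to 100 nM DHT, from dual-luciferase readout after 24 h compound treatment. Cells were HEK293 co-transfected (3 h) with human AR expression vector, androgen-responsive firefly reporter and Renilla control, in charcoal-stripped serum.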

In assay [1] the target is T2, androgen receptor (AR-LBD) (Rattus norvegicus, UniProt P15207).
T2 construct: 5 μL of 2×AR-LBD/Fluoromone AL Red Complex contained in the kit; purchased Invitrogen
T2 sequence (P15207 651-882 limits assumed): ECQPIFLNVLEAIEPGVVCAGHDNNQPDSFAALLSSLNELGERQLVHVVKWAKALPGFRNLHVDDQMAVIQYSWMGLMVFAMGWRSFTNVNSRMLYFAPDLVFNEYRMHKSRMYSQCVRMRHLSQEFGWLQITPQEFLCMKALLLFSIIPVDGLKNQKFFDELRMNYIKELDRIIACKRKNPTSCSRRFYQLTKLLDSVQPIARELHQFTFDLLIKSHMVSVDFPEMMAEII
As to the kind of experiment: Evaluation of androgen receptor affinity (PolarScreen Androgen Receptor Competitor Assay Kit, Red; fluorescence polarization). The conditions noted are these: 22° C. for 5 hours, relative to binding rate of 1 μM DHT, read-out: AR affinity (pEC50) (converted). Put shortly:
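FP competition: compound + AR-LBD/Fluoromone AL Red tracer complex, 22° C, 5 h. Reference 1 μM DHT binding rate; pEC50 by 4-parameter fit.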

For the molecule `CS(=O)(=O)NC(=O)c1nc(N(Cc2ccc(OC(F)F)cc2)c2ccc(C#N)cc2)oc1C1CC1` [Compound 648, 2-[4-cyano-N-[[4-(difluoromethoxy)phenyl]methyl]anilino]-5-cyclopropyl-N-methylsulfonyl-oxazole-4-carboxamide], the EC50 at human androgen receptor was above 10000 nM; in assay [1], 50.1 nM.

Regarding `CS(=O)(=O)NC(=O)c1nc(N(Cc2ccc(C(F)(F)F)cn2)c2ccc(C#N)cc2)oc1C1CC1` [Compound 649, 2-[4-cyano-N-[[5-(trifluoromethyl)-2-pyridyl]methyl]anilino]-5-cyclopropyl-N-methylsulfonyl-oxazole-4-carboxamide], the EC50 on human androgen receptor is above 10000 nM; in assay [1], 631 nM.

On to `CCc1oc(N(Cc2ccc(Br)c(Cl)c2)c2ccc(C#N)cc2)nc1C(=O)NS(C)(=O)=O` [Compound 650, 2-[N-[(4-bromo-3-chloro-phenyl)methyl]-4-cyano-anilino]-5-ethyl-N-methylsulfonyl-oxazole-4-carboxamide], for which the EC50 on human androgen receptor is 200 nM; in assay [1], 31.6 nM.

For `CCc1oc(N(Cc2ccc(Cl)c(F)c2)c2ccc(C#N)cc2)nc1C(=O)NS(C)(=O)=O` [Compound 651, 2-[N-[(4-chloro-3-fluoro-phenyl)methyl]-4-cyano-anilino]-5-ethyl-N-methylsulfonyl-oxazole-4-carboxamide], the EC50 on human androgen receptor is 200 nM; in assay [1], 39.8 nM.

As to `CCc1oc(N(Cc2ccc(Br)c(F)c2)c2ccc(C#N)cc2)nc1C(=O)NS(C)(=O)=O` [Compound 652, 2-[N-[(4-bromo-3-fluoro-phenyl)methyl]-4-cyano-anilino]-5-ethyl-N-methylsulfonyl-oxazole-4-carboxamide], the EC50 on human androgen receptor was 158 nM; in assay [1], 25.1 nM.

As to `CCc1oc(N(Cc2ccc(Br)cc2)c2ccc(C#N)cc2)nc1C(=O)NS(C)(=O)=O` [Compound 653, 2-[N-[(4-bromophenyl)methyl]-4-cyano-anilino]-5-ethyl-N-methylsulfonyl-oxazole-4-carboxamide], the results for the EC50 (on human androgen receptor; in assay [1]) were 158 nM and 50.1 nM, respectively.

With `CCc1oc(N(Cc2ccc(OC(F)F)c(F)c2)c2ccc(C#N)cc2)nc1C(=O)NS(C)(=O)=O` [Compound 654, 2-[4-cyano-N-[[4-(difluoromethoxy)-3-fluoro-phenyl]methyl]anilino]-5-ethyl-N-methylsulfonyl-oxazole-4-carboxamide], the EC50 at human androgen receptor is 631 nM; in assay [1], 39.8 nM.

On to `CCc1oc(N(Cc2ccc(C(F)(F)F)c(F)c2)c2ccc(C#N)cc2)nc1C(=O)NS(C)(=O)=O` [Compound 655, 2-[4-cyano-N-[[3-fluoro-4-(trifluoromethyl)phenyl]methyl]anilino]-5-ethyl-N-methylsulfonyl-oxazole-4-carboxamide], for which the results for the EC50 (at human androgen receptor; in assay [1]) were 398 nM and 39.8 nM, respectively.

On to `CCc1oc(N(Cc2cc(F)cc(OC(F)F)c2)c2ccc(C#N)cc2)nc1C(=O)NS(C)(=O)=O` [Compound 656, 2-[4-cyano-N-[[3-(difluoromethoxy)-5-fluoro-phenyl]methyl]anilino]-5-ethyl-N-methylsulfonyl-oxazole-4-carboxamide], for which the results for the EC50 (at human androgen receptor; in assay [1]) were 631 nM and 20 nM, respectively.

As for `CS(=O)(=O)NC(=O)c1nc(N(Cc2ccccc2)c2ccc(C#N)cc2)sc1Cl` [Compound 657, 2-(N-benzyl-4-cyano-anilino)-5-chloro-N-methylsulfonyl-thiazole-4-carboxamide], the EC50 at human androgen receptor is 50.1 nM; in assay [1] it was 31.6 nM.

With `CS(=O)(=O)NC(=O)c1nc(N(Cc2ccc(Cl)cn2)c2ccc(C#N)cc2)sc1C1CC1` [Compound 658, 2-[N-[(5-chloro-2-pyridyl)methyl]-4-cyano-anilino]-5-cyclopropyl-N-methylsulfonyl-thiazole-4-carboxamide], the EC50 on human androgen receptor is 5010 nM; in assay [1] it was 100 nM.
